The source of these data is patent US12673945B2, “3-((8-((1H-pyrazol-4-yl)amino)imidazo[1,2-a]pyridin-3-yl)ethinyl)-n-phenylbenzamide derivative, method for preparing same, and pharmaceutical composition containing same as active ingredient for prevention or treatment of cancer” (DAEGU-GYEONGBUK MEDICAL INNOVATION FOUNDATION, priority 2020, dated 2026).

SMILES strings stand for the structures.

Holding throughout (assay type): cell-based
For one test, the system named is Parental (Ba/F3). Put plainly: Ba/F3 cell proliferation inhibition. The note with it: BaF3; 72 hours, Cell Counting Kit-8. The procedure, abridged: (§1)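 Parental and T315I-Bcr-Abl Ba/F3 cells, 1×10^4 per well, exposed 72 h at 37 °C to nine 3-fold dilutions, final 0 to 10 μM. Viability by CCK-8 after 2 h, absorbance 450 nm; GI50 fitted from percent of vehicle-treated cells.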

The subject of another test is T315I-Bcr-Abl (Ba/F3). Put plainly: Ba/F3 cell proliferation inhibition. The note with it: BaF3; 72 hours, Cell Counting Kit-8. The procedure, abridged:
as §1

In the next test the test system is KOPM28 cells. Put plainly: human CML cell proliferation inhibition. The following applies: 72 hours, Cell Counting Kit-8. Put shortly:
(§2)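 Seed 1×10^4 cells/well; add compound, 9 concentrations by 5-fold dilution, final 0–10 μM, or DMSO; incubate 72 h, 37 °C, CO2; add CCK-8 for 2 h; read A450; normalise to vehicle; fit GI50.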
In general terms: Tetrazolium assays rely on reduction of a dye to a coloured formazan, in cell work by metabolically active cells.

Another test relates to T315I-KOPM28 cells. Kind of test: human CML cell proliferation inhibition. The following applies: 72 hours, Cell Counting Kit-8. The procedure, abridged:
as §2

In the next test the test system is T315I-TCCS cells. Put plainly: human CML cell proliferation inhibition. The note with it: 72 hours, Cell Counting Kit-8. The procedure, abridged:
as §2

The test system of the next test is TCCS cells. Put plainly: human CML cell proliferation inhibition. The following applies: 72 hours, Cell Counting Kit-8. The procedure, abridged:
as §2

Consider `Cc1cc(F)c(C(=O)Nc2cc(CN3CCN(C)C(=O)C3)cc(C(F)(F)F)c2)cc1C#Cc1cnc2c(Nc3cnn(C)c3)cccn12` [Example 71, 2-fluoro-4-methyl-5-((8-((1-methyl-1H-pyrazol-4-yl)amino)imidazo[1,2-a]pyridin-3-yl)ethynyl)-N-(3-((4-methyl-3-oxopiperazin-1-yl)methyl)-5-(trifluoromethyl)phenyl)benzamide], for which the GI50 in the test on Parental (Ba/F3) is greater than 5000 nM; in the test with T315I-Bcr-Abl (Ba/F3), 50 to 500 nM; with KOPM28 cells it was less than 10 nM; in the test on T315I-KOPM28 cells, greater than 100 nM; with T315I-TCCS cells, 100 nM; in the test on TCCS cells, less than 10 nM.
Consider `Cc1cc(F)c(C(=O)Nc2cc(CN3CC(OC(C)C)C3)cc(C(F)(F)F)c2)cc1C#Cc1cnc2c(Nc3cnn(C)c3)cccn12` [Example 72, 2-fluoro-N-(3-((3-isopropoxyazetidin-1-yl)methyl)-5-(trifluoromethyl)phenyl)-4-methyl-5-((8-((1-methyl-1H-pyrazol-4-yl)amino)imidazo[1,2-a]pyridin-3-yl)ethynyl)benzamide], for which the GI50 in the test on Parental (Ba/F3) is greater than 5000 nM; in the test on T315I-Bcr-Abl (Ba/F3), 50 to 500 nM; in the test on KOPM28 cells, less than 10 nM; with T315I-KOPM28 cells it was greater than 100 nM; in the test on T315I-TCCS cells, greater than 100 nM; in the test with TCCS cells, less than 10 nM.
For the molecule `Cc1cc(F)c(C(=O)Nc2cc(Cn3ccnc3)cc(C(F)(F)F)c2)cc1C#Cc1cnc2c(Nc3cnn(C)c3)cccn12` [Example 73, N-(3-((1H-imidazol-1-yl)methyl)-5-(trifluoromethyl)phenyl)-2-fluoro-4-methyl-5-((8-((1-methyl-1H-pyrazol-4-yl)amino)imidazo[1,2-a]pyridin-3-yl)ethynyl)benzamide], the GI50 with Parental (Ba/F3) is greater than 5000 nM; in the test with T315I-Bcr-Abl (Ba/F3), 50 to 500 nM; in the test on KOPM28 cells it was less than 10 nM; in the test with T315I-KOPM28 cells, 100 nM; in the test with T315I-TCCS cells, 100 nM; with TCCS cells, less than 10 nM.
Take `Cc1cc(F)c(C(=O)Nc2cc(Cn3cncn3)cc(C(F)(F)F)c2)cc1C#Cc1cnc2c(Nc3cnn(C)c3)cccn12` [Example 74, N-(3-((1H-1,2,4-triazol-1-yl)methyl)-5-(trifluoromethyl)phenyl)-2-fluoro-4-methyl-5-((8-((1-methyl-1H-pyrazol-4-yl)amino)imidazo[1,2-a]pyridin-3-yl)ethynyl)benzamide]: the GI50 is greater than 5000 nM in the test on Parental (Ba/F3); less than 50 nM in the test on T315I-Bcr-Abl (Ba/F3); less than 10 nM in the test on KOPM28 cells; 100 nM with T315I-KOPM28 cells; 100 nM with T315I-TCCS cells; less than 10 nM in the test with TCCS cells.
For `Cc1cn(-c2cc(NC(=O)c3cc(C#Cc4cnc5c(Nc6cn[nH]c6)cccn45)c(C)cc3F)cc(C(C)(C)C#N)c2)cn1` [Example 75, 5-((8-((1H-pyrazol-4-yl)amino)imidazo[1,2-a]pyridin-3-yl)ethynyl)-N-(3-(2-cyanopropan-2-yl)-5-(4-methyl-1H-imidazol-1-yl)phenyl)-2-fluoro-4-methylbenzamide], the concentration for 50% growth inhibition (GI50) in the test on Parental (Ba/F3) is greater than 5000 nM; in the test with T315I-Bcr-Abl (Ba/F3), less than 50 nM; in the test with KOPM28 cells it was less than 10 nM; in the test on T315I-KOPM28 cells it was 100 nM; with T315I-TCCS cells it was 100 nM; with TCCS cells, less than 10 nM.
Take `Cc1cn(-c2cc(NC(=O)c3cc(C#Cc4cnc5c(Nc6cn[nH]c6)cccn45)c(C)cc3Cl)cc(C(C)(C)C#N)c2)cn1` [Example 76, 5-((8-((1H-pyrazol-4-yl)amino)imidazo[1,2-a]pyridin-3-yl)ethynyl)-2-chloro-N-(3-(2-cyanopropan-2-yl)-5-(4-methyl-1H-imidazol-1-yl)phenyl)-4-methylbenzamide]: the GI50 in the test with Parental (Ba/F3) was greater than 5000 nM; in the test on T315I-Bcr-Abl (Ba/F3), less than 50 nM; with KOPM28 cells, less than 10 nM; with T315I-KOPM28 cells it was 100 nM; in the test with T315I-TCCS cells, 100 nM; in the test with TCCS cells, less than 10 nM.
For the molecule `Cc1cc(F)c(C(=O)Nc2cc(-c3cnn(C)c3)cc(C(C)(C)C#N)c2)cc1C#Cc1cnc2c(Nc3cn[nH]c3)cccn12` [Example 77, 5-((8-((1H-pyrazol-4-yl)amino)imidazo[1,2-a]pyridin-3-yl)ethynyl)-N-(3-(2-cyanopropan-2-yl)-5-(1-methyl-1H-pyrazol-4-yl)phenyl)-2-fluoro-4-methylbenzamide], the GI50 in the test on Parental (Ba/F3) was greater than 5000 nM; in the test with T315I-Bcr-Abl (Ba/F3), 50 to 500 nM; in the test with KOPM28 cells it was less than 10 nM; in the test on T315I-KOPM28 cells it was greater than 100 nM; with T315I-TCCS cells it was 100 nM; in the test on TCCS cells, less than 10 nM.
As to `Cc1cc(F)c(C(=O)Nc2cc(-c3ccncc3)cc(C(C)(C)C#N)c2)cc1C#Cc1cnc2c(Nc3cn[nH]c3)cccn12` [Example 78, 5-((8-((1H-pyrazol-4-yl)amino)imidazo[1,2-a]pyridin-3-yl)ethynyl)-N-(3-(2-cyanopropan-2-yl)-5-(pyridin-4-yl)phenyl)-2-fluoro-4-methylbenzamide], the GI50 in the test on Parental (Ba/F3) was greater than 5000 nM; with T315I-Bcr-Abl (Ba/F3), 50 to 500 nM; in the test on KOPM28 cells, 100 nM; with T315I-KOPM28 cells it was greater than 100 nM; with T315I-TCCS cells it was greater than 100 nM; with TCCS cells, less than 10 nM.
Take `Cc1cc(F)c(C(=O)Nc2cc(-c3cccnc3)cc(C(C)(C)C#N)c2)cc1C#Cc1cnc2c(Nc3cn[nH]c3)cccn12` [Example 79, 5-((8-((1H-pyrazol-4-yl)amino)imidazo[1,2-a]pyridin-3-yl)ethynyl)-N-(3-(2-cyanopropan-2-yl)-5-(pyridin-3-yl)phenyl)-2-fluoro-4-methylbenzamide]: the 50% growth inhibitory concentration (GI50) was greater than 5000 nM in the test on Parental (Ba/F3); 50 to 500 nM in the test on T315I-Bcr-Abl (Ba/F3); less than 10 nM in the test with KOPM28 cells; greater than 100 nM in the test with T315I-KOPM28 cells; 100 nM in the test with T315I-TCCS cells; less than 10 nM with TCCS cells.
As for `Cc1cc(F)c(C(=O)Nc2cc(N3CCN(C)CC3)cc(C(C)(C)C#N)c2)cc1C#Cc1cnc2c(Nc3cn[nH]c3)cccn12` [Example 80, 5-((8-((1H-pyrazol-4-yl)amino)imidazo[1,2-a]pyridin-3-yl)ethynyl)-N-(3-(2-cyanopropan-2-yl)-5-(4-methylpiperazin-1-yl)phenyl)-2-fluoro-4-methylbenzamide], the concentration for 50% growth inhibition (GI50) in the test with Parental (Ba/F3) is greater than 5000 nM; in the test with T315I-Bcr-Abl (Ba/F3), 50 to 500 nM; in the test with KOPM28 cells, less than 10 nM; in the test on T315I-KOPM28 cells it was greater than 100 nM; with T315I-TCCS cells, 100 nM; in the test with TCCS cells, less than 10 nM.
On to `Cc1cc(F)c(C(=O)Nc2cc(N(C)CCN(C)C)cc(C(C)(C)C#N)c2)cc1C#Cc1cnc2c(Nc3cn[nH]c3)cccn12` [Example 81, 5-((8-((1H-pyrazol-4-yl)amino)imidazo[1,2-a]pyridin-3-yl)ethynyl)-N-(3-(2-cyanopropan-2-yl)-5-((2-(dimethylamino)ethyl)(methyl)amino)phenyl)-2-fluoro-4-methylbenzamide], for which the GI50 in the test on Parental (Ba/F3) was 500 to 5000 nM; with T315I-Bcr-Abl (Ba/F3), 50 to 500 nM; with KOPM28 cells it was less than 10 nM; with T315I-KOPM28 cells, greater than 100 nM; with T315I-TCCS cells, 100 nM; in the test with TCCS cells, less than 10 nM.
On to `Cc1cc(F)c(C(=O)Nc2cc(N3CCN(C)C(=O)C3)cc(C(C)(C)C#N)c2)cc1C#Cc1cnc2c(Nc3cn[nH]c3)cccn12` [Example 82, 5-((8-((1H-pyrazol-4-yl)amino)imidazo[1,2-a]pyridin-3-yl)ethynyl)-N-(3-(2-cyanopropan-2-yl)-5-(4-methyl-3-oxopiperazin-1-yl)phenyl)-2-fluoro-4-methylbenzamide], for which the concentration for 50% growth inhibition (GI50) with Parental (Ba/F3) is 500 to 5000 nM; in the test on T315I-Bcr-Abl (Ba/F3), 50 to 500 nM; in the test on KOPM28 cells, less than 10 nM; in the test on T315I-KOPM28 cells, greater than 100 nM; with T315I-TCCS cells, 100 nM; in the test with TCCS cells, less than 10 nM.
As to `Cc1cc(F)c(C(=O)Nc2cc(Oc3ccncc3)cc(C(C)(C)C#N)c2)cc1C#Cc1cnc2c(Nc3cn[nH]c3)cccn12` [Example 83, 5-((8-((1H-pyrazol-4-yl)amino)imidazo[1,2-a]pyridin-3-yl)ethynyl)-N-(3-(2-cyanopropan-2-yl)-5-(pyridin-4-yloxy)phenyl)-2-fluoro-4-methylbenzamide], the GI50 was 500 to 5000 nM in the test on Parental (Ba/F3); less than 50 nM in the test with T315I-Bcr-Abl (Ba/F3); less than 10 nM in the test on KOPM28 cells; 100 nM in the test on T315I-KOPM28 cells; 100 nM with T315I-TCCS cells; less than 10 nM in the test with TCCS cells.
`Cc1cc(F)c(C(=O)Nc2cc(CN3CCN(C)CC3)cc(C(C)(C)C#N)c2)cc1C#Cc1cnc2c(Nc3cn[nH]c3)cccn12` [Example 84, 5-((8-((1H-pyrazol-4-yl)amino)imidazo[1,2-a]pyridin-3-yl)ethynyl)-N-(3-(2-cyanopropan-2-yl)-5-((4-methylpiperazin-1-yl)methyl)phenyl)-2-fluoro-4-methylbenzamide]: the GI50 in the test on Parental (Ba/F3) is 500 to 5000 nM; in the test with T315I-Bcr-Abl (Ba/F3), 50 to 500 nM; in the test on KOPM28 cells, less than 10 nM; in the test on T315I-KOPM28 cells it was greater than 100 nM; in the test with T315I-TCCS cells, 100 nM; in the test on TCCS cells, less than 10 nM.
`Cc1cc(F)c(C(=O)Nc2cc(CN3CCC(N(C)C)C3)cc(C(C)(C)C#N)c2)cc1C#Cc1cnc2c(Nc3cn[nH]c3)cccn12` (stereo not drawn) [Example 85, 5-((8-((1H-pyrazol-4-yl)amino)imidazo[1,2-a]pyridin-3-yl)ethynyl)-N-(3-(2-cyanopropan-2-yl)-5-((3-(dimethylamino)pyrrolidin-1-yl)methyl)phenyl)-2-fluoro-4-methylbenzamide]: the GI50 with Parental (Ba/F3) was 500 to 5000 nM; with T315I-Bcr-Abl (Ba/F3), 50 to 500 nM; in the test with KOPM28 cells, less than 10 nM; with T315I-KOPM28 cells, greater than 100 nM; in the test on T315I-TCCS cells it was 100 nM; in the test with TCCS cells, less than 10 nM.

For orientation: GI50 means the concentration giving 50% growth inhibition.
